According to patent US20110230481A2, “DERIVATIVES OF TETRABROMOBENZIMIDAZOLE, A PROCESS FOR THE PREPARATION THEREOF, A PHARMACEUTICAL COMPOSITION COMPRISING THE SAME, A METHOD OF USING THE SAME, A METHOD FOR MODULATING OR REGULATING SERINE/THREONINE KINASES, AND SERINE/THREONINE KINASES MODULATING AGENT” (SELVITA S.A., priority 2009, published 2011):

Key:
Experiment in all cases: KINOMEscan Max
Format in all cases: binding
PKAC-beta = biological target: T1, PKAC-beta (Homo sapiens, UniProt P22694)
T1 construct: purchased Ambit (KINOMEscan Max service)
Procedure, shortened: (§1)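 Compound displacement of DNA-tagged kinase from immobilized active-site ligand; qPCR of tag as read-out.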

PIK3CA(E545A) = biological target: T2, PIK3CA(E545A) (Homo sapiens, UniProt P42336, E545A)
T2 construct: purchased Ambit Kinomescan (contract screening)
Procedure, shortened: as §1

FGFR2 = FGFR2 (Homo sapiens, UniProt P21802)
Procedure, shortened: as §1

[1] = biological target: ABL1(Y253F)-phosphorylated (Homo sapiens, UniProt P00519, Y253F)
Procedure, shortened: as §1

CSNK2A2 = biological target: T3, CSNK2A2 (Homo sapiens, UniProt P19784)
T3 construct: DNA tag (qPCR read-out)
Procedure, shortened: as §1

NEK2 = NEK2 (Homo sapiens, UniProt P51955)
Procedure, shortened: as §1

AAK1 = biological target: T4, AAK1 (Homo sapiens, UniProt Q2M2I8)
T4 construct: purchased Ambit Kinomescan (contract screening)
Procedure, shortened: as §1

PCTK2 = PCTK2 (Homo sapiens, UniProt Q00537)
Procedure, shortened: as §1

[2] = biological target: T5, RPS6KA4(Kin.Dom.2-C-terminal) (Homo sapiens, UniProt O75676)
T5 construct: RPS6KA4(Kin.Dom.2-C-terminal); purchased Ambit Kinomescan (contract screening)
T5 sequence (O75676 411-674 limits assumed): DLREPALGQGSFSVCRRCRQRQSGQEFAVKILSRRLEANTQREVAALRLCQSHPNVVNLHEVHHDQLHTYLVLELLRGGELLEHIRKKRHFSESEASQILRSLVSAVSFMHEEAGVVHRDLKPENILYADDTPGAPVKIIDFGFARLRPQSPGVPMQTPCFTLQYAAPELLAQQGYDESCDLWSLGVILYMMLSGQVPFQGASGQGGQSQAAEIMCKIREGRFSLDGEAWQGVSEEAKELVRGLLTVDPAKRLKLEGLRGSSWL
Procedure, shortened: as §1

MLK2 = MLK2 (Homo sapiens, UniProt Q02779)
Procedure, shortened: as §1

DYRK1B = biological target: T6, DYRK1B (Homo sapiens, UniProt Q9Y463)
T6 construct: DNA tag (qPCR read-out); purchased Ambit Kinomescan
Procedure, shortened: as §1

S6K1 = S6K1 (Homo sapiens, UniProt P23443)
Procedure, shortened: as §1

MEK3 = MEK3 (Homo sapiens, UniProt P46734)
Procedure, shortened: as §1

MAK = MAK (Homo sapiens, UniProt P20794)
Procedure, shortened: as §1

YSK1 = biological target: T7, YSK1 (Homo sapiens, UniProt O00506)
T7 construct: purchased Ambit Kinomescan (contract screening service)
Procedure, shortened: as §1

TRPM6 = TRPM6 (Homo sapiens, UniProt Q9BX84)
Procedure, shortened: as §1

TNIK = biological target: T8, TNIK (Homo sapiens, UniProt Q9UKE5)
T8 construct: purchased Ambit Kinomescan (contract screening service)
Procedure, shortened: as §1

GCN2(Kin.Dom.S808G) = biological target: T9, GCN2(Kin.Dom.S808G) (Homo sapiens, UniProt Q9P2K8, S808G)
T9 construct: GCN2(Kin.Dom.S808G)
Procedure, shortened: as §1

CHEK1 = biological target: T10, CHEK1 (Homo sapiens, UniProt O14757); settings: 1 μM
T10 construct: DNA tag (qPCR read-out)
T10 sequence (O14757 whole entry): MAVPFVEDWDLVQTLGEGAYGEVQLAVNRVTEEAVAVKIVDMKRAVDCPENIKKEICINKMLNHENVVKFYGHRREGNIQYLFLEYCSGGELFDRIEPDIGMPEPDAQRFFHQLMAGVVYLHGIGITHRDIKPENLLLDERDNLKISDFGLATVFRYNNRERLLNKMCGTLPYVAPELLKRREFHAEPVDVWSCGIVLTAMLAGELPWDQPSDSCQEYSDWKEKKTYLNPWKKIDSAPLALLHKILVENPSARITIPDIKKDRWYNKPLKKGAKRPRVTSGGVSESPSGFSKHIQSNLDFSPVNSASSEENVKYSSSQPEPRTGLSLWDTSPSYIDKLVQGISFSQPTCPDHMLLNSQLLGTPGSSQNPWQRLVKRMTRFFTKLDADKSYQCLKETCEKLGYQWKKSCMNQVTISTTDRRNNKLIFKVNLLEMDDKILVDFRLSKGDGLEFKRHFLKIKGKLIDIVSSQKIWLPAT
Procedure, shortened: as §1

ZAK = ZAK (Homo sapiens, UniProt Q9NYL2)
Procedure, shortened: as §1

PIK3CA(M1043I) = biological target: T11, PIK3CA(M1043I) (Homo sapiens, UniProt P42336, M1043I)
T11 construct: DNA tag (qPCR read-out)
Procedure, shortened: as §1

MARK3 = biological target: T12, MARK3 (Homo sapiens, UniProt P27448)
T12 construct: purchased Ambit Kinomescan (contract panel)
Procedure, shortened: as §1

p38-alpha = p38-alpha (Homo sapiens, UniProt Q16539); settings: 1 μM
Procedure, shortened: as §1

DMPK2 = DMPK2 (Homo sapiens, UniProt Q6DT37)
Sequence of DMPK2 (Q6DT37 whole entry): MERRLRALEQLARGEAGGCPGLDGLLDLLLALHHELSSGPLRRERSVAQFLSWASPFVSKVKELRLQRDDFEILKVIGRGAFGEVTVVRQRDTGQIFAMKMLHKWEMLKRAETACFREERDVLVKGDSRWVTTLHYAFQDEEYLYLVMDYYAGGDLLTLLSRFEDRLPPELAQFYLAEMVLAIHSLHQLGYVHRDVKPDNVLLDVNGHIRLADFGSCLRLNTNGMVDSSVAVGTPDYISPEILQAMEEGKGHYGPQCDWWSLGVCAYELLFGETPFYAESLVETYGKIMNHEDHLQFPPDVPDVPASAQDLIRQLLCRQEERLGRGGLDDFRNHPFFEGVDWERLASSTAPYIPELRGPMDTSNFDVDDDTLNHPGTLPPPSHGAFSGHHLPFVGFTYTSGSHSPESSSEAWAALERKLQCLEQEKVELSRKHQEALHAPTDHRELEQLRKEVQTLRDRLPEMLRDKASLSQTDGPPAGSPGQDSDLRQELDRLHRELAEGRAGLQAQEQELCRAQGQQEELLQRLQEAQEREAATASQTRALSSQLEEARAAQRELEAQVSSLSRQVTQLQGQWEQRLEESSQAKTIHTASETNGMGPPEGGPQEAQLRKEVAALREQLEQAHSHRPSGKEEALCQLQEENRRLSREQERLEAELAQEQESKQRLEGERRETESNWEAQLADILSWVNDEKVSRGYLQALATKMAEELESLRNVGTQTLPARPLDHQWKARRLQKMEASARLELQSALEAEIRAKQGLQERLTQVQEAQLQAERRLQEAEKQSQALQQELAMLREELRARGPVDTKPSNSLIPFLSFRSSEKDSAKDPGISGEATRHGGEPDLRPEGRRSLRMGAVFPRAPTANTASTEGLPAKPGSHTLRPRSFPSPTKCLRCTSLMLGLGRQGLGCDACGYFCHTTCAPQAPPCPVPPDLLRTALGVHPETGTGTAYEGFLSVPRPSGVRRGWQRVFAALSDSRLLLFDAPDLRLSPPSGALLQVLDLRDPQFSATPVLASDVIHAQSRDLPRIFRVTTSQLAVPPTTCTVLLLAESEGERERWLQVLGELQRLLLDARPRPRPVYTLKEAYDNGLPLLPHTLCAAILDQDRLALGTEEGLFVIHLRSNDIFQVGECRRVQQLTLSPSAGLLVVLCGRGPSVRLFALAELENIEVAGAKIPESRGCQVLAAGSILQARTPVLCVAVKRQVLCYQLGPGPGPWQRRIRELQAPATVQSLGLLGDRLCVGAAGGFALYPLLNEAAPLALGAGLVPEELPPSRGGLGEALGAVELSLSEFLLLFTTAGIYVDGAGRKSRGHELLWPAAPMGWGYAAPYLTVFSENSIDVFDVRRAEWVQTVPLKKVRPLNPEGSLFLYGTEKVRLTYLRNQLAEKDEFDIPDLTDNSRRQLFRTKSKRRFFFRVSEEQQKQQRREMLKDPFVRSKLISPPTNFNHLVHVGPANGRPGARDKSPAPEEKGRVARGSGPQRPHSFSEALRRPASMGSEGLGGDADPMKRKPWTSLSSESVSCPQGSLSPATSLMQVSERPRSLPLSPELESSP
Procedure, shortened: as §1

JNK2 = biological target: T13, JNK2 (Homo sapiens, UniProt P45984); settings: 1 μM
T13 construct: purchased Ambit Kinomescan (contract panel)
Procedure, shortened: as §1

HCK = biological target: T14, HCK (Homo sapiens, UniProt P08631)
T14 construct: purchased Ambit Kinomescan (contract screening)
T14 sequence (P08631 whole entry): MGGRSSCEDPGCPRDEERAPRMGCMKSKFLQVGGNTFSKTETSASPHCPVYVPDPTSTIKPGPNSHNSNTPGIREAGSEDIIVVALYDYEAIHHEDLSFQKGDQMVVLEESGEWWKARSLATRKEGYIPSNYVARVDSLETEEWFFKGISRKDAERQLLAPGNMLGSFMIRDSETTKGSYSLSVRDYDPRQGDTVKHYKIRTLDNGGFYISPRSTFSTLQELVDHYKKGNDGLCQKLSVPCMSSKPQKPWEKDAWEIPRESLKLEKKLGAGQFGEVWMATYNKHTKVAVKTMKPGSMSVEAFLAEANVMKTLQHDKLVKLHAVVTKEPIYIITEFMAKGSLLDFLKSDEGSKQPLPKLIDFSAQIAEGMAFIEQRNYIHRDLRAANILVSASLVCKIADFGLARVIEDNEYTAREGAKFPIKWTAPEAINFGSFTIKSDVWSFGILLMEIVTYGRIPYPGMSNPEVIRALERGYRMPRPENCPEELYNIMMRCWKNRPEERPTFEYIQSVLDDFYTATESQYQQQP
Procedure, shortened: as §1

SLK = SLK (Homo sapiens, UniProt Q9H2G2)
Sequence of SLK (Q9H2G2 whole entry): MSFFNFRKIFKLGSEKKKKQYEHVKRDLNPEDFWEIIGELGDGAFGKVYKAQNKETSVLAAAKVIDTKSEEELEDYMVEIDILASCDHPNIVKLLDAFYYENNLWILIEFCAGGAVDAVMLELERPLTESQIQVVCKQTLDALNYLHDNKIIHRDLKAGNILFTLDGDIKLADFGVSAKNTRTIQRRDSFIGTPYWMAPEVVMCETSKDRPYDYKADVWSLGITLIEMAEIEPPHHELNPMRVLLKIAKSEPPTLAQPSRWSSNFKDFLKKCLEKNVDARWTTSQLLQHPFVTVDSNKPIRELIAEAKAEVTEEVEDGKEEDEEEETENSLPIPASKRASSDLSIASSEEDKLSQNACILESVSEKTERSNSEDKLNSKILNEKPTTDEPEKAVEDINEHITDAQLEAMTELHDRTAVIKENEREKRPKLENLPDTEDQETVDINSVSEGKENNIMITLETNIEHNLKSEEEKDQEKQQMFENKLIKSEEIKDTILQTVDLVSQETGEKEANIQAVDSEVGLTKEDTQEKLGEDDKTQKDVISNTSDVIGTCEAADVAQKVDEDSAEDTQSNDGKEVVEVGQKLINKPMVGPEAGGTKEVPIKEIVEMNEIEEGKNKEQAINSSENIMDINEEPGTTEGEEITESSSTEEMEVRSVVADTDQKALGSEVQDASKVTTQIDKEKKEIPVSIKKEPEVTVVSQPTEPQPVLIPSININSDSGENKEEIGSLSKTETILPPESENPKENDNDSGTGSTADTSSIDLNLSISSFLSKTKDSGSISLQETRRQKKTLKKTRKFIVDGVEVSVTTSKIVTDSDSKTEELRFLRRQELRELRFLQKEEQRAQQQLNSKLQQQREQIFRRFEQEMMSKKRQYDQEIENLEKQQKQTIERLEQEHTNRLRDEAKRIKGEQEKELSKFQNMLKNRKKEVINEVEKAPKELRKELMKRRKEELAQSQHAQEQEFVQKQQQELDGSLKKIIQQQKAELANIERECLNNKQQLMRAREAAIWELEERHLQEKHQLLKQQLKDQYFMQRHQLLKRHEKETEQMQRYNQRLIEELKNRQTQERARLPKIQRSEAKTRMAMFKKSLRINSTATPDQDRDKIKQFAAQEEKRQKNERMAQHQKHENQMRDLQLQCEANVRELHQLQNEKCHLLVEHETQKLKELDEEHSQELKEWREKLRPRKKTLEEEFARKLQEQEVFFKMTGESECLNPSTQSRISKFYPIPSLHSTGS
Procedure, shortened: as §1

MST1 = MST1 (Homo sapiens, UniProt Q13043); settings: 1 μM
Procedure, shortened: as §1

RIOK2 = biological target: T15, RIOK2 (Homo sapiens, UniProt Q9BVS4)
T15 construct: DNA tag (qPCR read-out)
Procedure, shortened: as §1

ABL2 = ABL2 (Homo sapiens, UniProt P42684)
Procedure, shortened: as §1

MUSK = biological target: T16, MUSK (Homo sapiens, UniProt O15146)
T16 construct: purchased Ambit Kinomescan (contract screening)
T16 sequence (O15146 24-869): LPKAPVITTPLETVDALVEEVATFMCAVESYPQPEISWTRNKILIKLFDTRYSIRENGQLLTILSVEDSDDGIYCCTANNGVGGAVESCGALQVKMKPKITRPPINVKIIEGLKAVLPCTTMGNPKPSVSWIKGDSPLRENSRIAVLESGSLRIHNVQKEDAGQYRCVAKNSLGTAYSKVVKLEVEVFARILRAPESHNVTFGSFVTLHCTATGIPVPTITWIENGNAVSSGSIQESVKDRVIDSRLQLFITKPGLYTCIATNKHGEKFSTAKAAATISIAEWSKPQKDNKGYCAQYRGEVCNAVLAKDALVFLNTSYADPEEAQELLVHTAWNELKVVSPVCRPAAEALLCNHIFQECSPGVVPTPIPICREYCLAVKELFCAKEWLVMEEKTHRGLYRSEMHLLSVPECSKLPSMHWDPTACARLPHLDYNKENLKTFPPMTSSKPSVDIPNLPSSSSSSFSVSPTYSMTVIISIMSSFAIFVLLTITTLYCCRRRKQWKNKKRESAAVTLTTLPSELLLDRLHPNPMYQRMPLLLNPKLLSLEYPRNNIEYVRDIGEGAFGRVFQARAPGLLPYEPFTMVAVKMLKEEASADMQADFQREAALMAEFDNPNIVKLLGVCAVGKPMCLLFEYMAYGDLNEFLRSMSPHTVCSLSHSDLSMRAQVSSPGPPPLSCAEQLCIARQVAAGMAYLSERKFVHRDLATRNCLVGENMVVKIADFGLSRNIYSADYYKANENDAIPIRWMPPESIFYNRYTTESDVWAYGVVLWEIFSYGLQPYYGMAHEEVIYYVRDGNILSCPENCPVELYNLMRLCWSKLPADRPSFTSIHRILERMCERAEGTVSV
Procedure, shortened: as §1

CASK = CASK (Homo sapiens, UniProt O14936)
Procedure, shortened: as §1

TGFBR1 = biological target: T17, TGFBR1 (Homo sapiens, UniProt P36897)
T17 construct: purchased Ambit Kinomescan (contract screening service)
Procedure, shortened: as §1

MYO3B = MYO3B (Homo sapiens, UniProt Q8WXR4)
Procedure, shortened: as §1

Q: For `NCCCNc1nc2c(Br)c(Br)c(Br)c(Br)c2[nH]1` [Compound 11, N-(3-aminopropyl)-4,5,6,7-tetrabromo-1H-benzo[d]imidazol-2-amine], which remaining binding at 1 µM (PKAC-beta) is on record?
A: Its remaining binding at 1 µM is 84%.

Q: What about the remaining binding at 1 µM (PIK3CA(E545A)) of the same compound?
A: Its remaining binding at 1 µM is 96%.

Q: And the remaining binding at 1 µM (FGFR2)?
A: The remaining binding at 1 µM was 77%.

Q: What about the remaining binding at 1 µM [1] of the same compound?
A: Its remaining binding at 1 µM is 100%.

Q: And the remaining binding at 1 µM (CSNK2A2)?
A: Its remaining binding at 1 µM is 90%.

Q: And the remaining binding at 1 µM (NEK2)?
A: The remaining binding at 1 µM was 99%.

Q: And the remaining binding at 1 µM (AAK1)?
A: Its remaining binding at 1 µM is 97%.

Q: What about the remaining binding at 1 µM (PCTK2) of the same compound?
A: The remaining binding at 1 µM was 100%.

Q: And the remaining binding at 1 µM [2]?
A: Its remaining binding at 1 µM is 97%.

Q: What about the remaining binding at 1 µM (MLK2) of the same compound?
A: The remaining binding at 1 µM was 100%.

Q: What about the remaining binding at 1 µM (DYRK1B) of the same compound?
A: Its remaining binding at 1 µM is 7.4%.

Q: And the remaining binding at 1 µM (S6K1)?
A: Its remaining binding at 1 µM is 79%.

Q: What about the remaining binding at 1 µM (MEK3) of the same compound?
A: The remaining binding at 1 µM was 78%.

Q: And the remaining binding at 1 µM (MAK)?
A: The remaining binding at 1 µM was 79%.

Q: What about the remaining binding at 1 µM (YSK1) of the same compound?
A: Its remaining binding at 1 µM is 100%.

Q: And the remaining binding at 1 µM (TRPM6)?
A: The remaining binding at 1 µM was 91%.

Q: And the remaining binding at 1 µM (TNIK)?
A: The remaining binding at 1 µM was 100%.

Q: And the remaining binding at 1 µM (GCN2(Kin.Dom.S808G))?
A: Its remaining binding at 1 µM is 95%.

Q: What about the “% binding” value (CHEK1) of the same compound?
A: The value was 88%.

Q: And the remaining binding at 1 µM (ZAK)?
A: The remaining binding at 1 µM was 98%.

Q: What about the remaining binding at 1 µM (PIK3CA(M1043I)) of the same compound?
A: Its remaining binding at 1 µM is 100%.

Q: And the remaining binding at 1 µM (MARK3)?
A: Its remaining binding at 1 µM is 100%.

Q: What about the “% binding” value (p38-alpha) of the same compound?
A: The value was 100%.

Q: What about the remaining binding at 1 µM (DMPK2) of the same compound?
A: The remaining binding at 1 µM was 96%.

Q: And the “% binding” value (JNK2)?
A: Its value is 100%.

Q: And the remaining binding at 1 µM (HCK)?
A: Its remaining binding at 1 µM is 98%.

Q: And the remaining binding at 1 µM (SLK)?
A: The remaining binding at 1 µM was 92%.

Q: And the “% binding” value (MST1)?
A: The value was 100%.

Q: And the remaining binding at 1 µM (RIOK2)?
A: The remaining binding at 1 µM was 100%.

Q: And the remaining binding at 1 µM (ABL2)?
A: The remaining binding at 1 µM was 100%.

Q: What about the remaining binding at 1 µM (MUSK) of the same compound?
A: The remaining binding at 1 µM was 97%.

Q: And the remaining binding at 1 µM (CASK)?
A: Its remaining binding at 1 µM is 94%.

Q: What about the remaining binding at 1 µM (TGFBR1) of the same compound?
A: The remaining binding at 1 µM was 100%.

Q: And the remaining binding at 1 µM (MYO3B)?
A: The remaining binding at 1 µM was 100%.
